Test in all cases: growth of human tumour cells (NCI), 48 h
The subject of assay [1] is SK-OV-3 ovarian.
The test system of assay [2] is NCI-H23 lung.
Assay [3] relates to ACHN renal.
In assay [4] the test system is CCRF-CEM leukemia.
The test system of assay [5] is COLO 205 colon.
Assay [6] has as its system EKVX NSCLC.
For assay [7], the system named is HS 578T breast.
Assay [8] concerns UO-31 renal.
Assay [9] has as its system T-47D breast.
For assay [10], the system named is TK-10 renal.

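48-hour exposure; five concentrations; linearly interpolated endpoints. GI50 marks 50% less growth. TGI: concentration producing complete growth inhibition.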

For `CCN(CC)CCCOc1cc(O)c2c(=O)cc(-c3ccccc3)oc2c1`, the GI50 is 14.3 µM in assay [1]; 11.4 µM in assay [2]; 6.16 µM in assay [3]; 10.4 µM in assay [4]; 4.21 µM in assay [5]; 13.2 µM in assay [6]. Moreover, the GI50 is 10.2 µM in [7], 3.74 µM in assay [8], 15.5 µM in [9] and 10.3 µM in assay [10]. Further, the TGI in [1] came to 28 µM; in assay [2], 23.4 µM; in [3], 19 µM; in assay [4] it was 26.8 µM; in [5], 15.5 µM; in assay [6], 26.4 µM. The TGI in assay [7] came to 26 µM; in [8], 15.9 µM; in [9], 33.4 µM; in [10], 25.3 µM.

Regarding `C=CC(=O)N1CCC([C@@H]2CCNc3c(C(N)=O)c(-c4ccc(Oc5ccccc5)cc4)nn32)CC1`, the GI50 in assay [1] is 0.338 µM; in [2], 17.5 µM; in assay [3] it was 2.34 µM; in assay [4] it was 19.4 µM; in assay [5], 22.1 µM; in assay [6], 2.35 µM. Further, the GI50 in [7] is 14.7 µM; in [8] it was 2.96 µM; in [9], 3.49 µM; in [10] it was 0.385 µM. Further, the TGI in [1] is 14.2 µM; in [2], 43.2 µM; in assay [3] it was more than 62.6 µM; in [4] it was more than 73.2 µM; in assay [5] it was more than 74.3 µM; in [6], more than 100 µM. Further, the TGI in [7] is 46.8 µM; in [8], more than 66.4 µM; in [9] it was more than 87.1 µM; in assay [10], 7.77 µM.

With `CNNC(=N\S(=O)(=O)c1cc(C(=O)Nc2ccc(Cl)cc2)c(Cl)cc1SCc1ccccc1)/N=C/c1ccc([N+](=O)[O-])s1`, the GI50 in [1] was more than 100 µM; in assay [2], more than 100 µM; in assay [3], more than 100 µM; in assay [4], more than 85.1 µM; in assay [5], 8.97 µM; in assay [6], more than 54.4 µM. Further, the GI50 in [7] is 38.2 µM; in assay [8] it was more than 100 µM; in [9], 7.07 µM; in assay [10], more than 100 µM. Further, the TGI in [1], in [2], in assay [3], in assay [4], in assay [5] and in [6] was more than 100 µM throughout. The TGI in [7], in assay [8], in assay [9] and in [10] was more than 100 µM in each case.

Regarding `CC1(C)N=C(N)N=C(N)N1c1cccc(CCCCc2ccccc2)c1`, the GI50 in assay [1] is 1.98 µM; in assay [2] it was 0.402 µM; in assay [3], 3.22 µM; in assay [4] it was 0.123 µM; in assay [5], 0.448 µM; in assay [6], 0.87 µM. Also, the GI50 was 4.57 µM in [7], 10.2 µM in assay [8], 1.28 µM in [9] and 0.704 µM in [10]. Moreover, the TGI in assay [1] stood at 17 µM; in [2], 14.1 µM; in [3], 19.7 µM; in [4], 7.04 µM; in [5], 2.36 µM; in assay [6] it was 20.6 µM. Besides, the TGI in assay [7] came to 28.5 µM; in assay [8] it was 32 µM; in assay [9], 16.2 µM; in [10] it was 20.3 µM.

As to `c1ccc(-c2nnc(Nc3ccc4c(c3)OCCO4)o2)c(NCc2ccncc2)c1`, the GI50 is 0.0191 µM in assay [1]; 0.033 µM in [2]; 0.0784 µM in assay [3]; 0.033 µM in [4]; 0.0286 µM in [5]; 0.105 µM in assay [6]. Besides, the GI50 in assay [7] is 0.0281 µM; in assay [8], 0.22 µM; in assay [9], 1.65 µM; in [10], 1.98 µM. In addition, the TGI is 0.0856 µM in assay [1]; 6.81 µM in assay [2]; 14.4 µM in assay [3]; more than 100 µM in assay [4]; 0.076 µM in [5]; more than 100 µM in assay [6]. In addition, the TGI is more than 69.4 µM in assay [7], 26.3 µM in assay [8], 16.9 µM in assay [9] and more than 81.8 µM in assay [10].

For `COc1ccc2[nH]c(=O)c(/C=C/C(=O)/C=C/c3ccc(O)c(OC)c3)cc2c1`, the GI50 in assay [1] is 2.79 µM; in assay [2], 2.04 µM; in [3], 1.68 µM; in [4], 2.06 µM; in assay [5] it was 1.6 µM; in [6], 1.95 µM. Moreover, the GI50 is 3.81 µM in assay [7], 1.47 µM in [8], 2.63 µM in assay [9] and 2.29 µM in [10]. Besides, the TGI is 9.82 µM in assay [1]; 4.88 µM in assay [2]; 3.13 µM in [3]; more than 100 µM in assay [4]; 3.81 µM in assay [5]; 4.35 µM in [6]. In addition, the TGI was more than 100 µM in [7], 2.79 µM in [8], 13.9 µM in assay [9] and 5.72 µM in [10].
